Test results from ChEMBL document CHEMBL1201862, “PubChem BioAssay data set” (2004).
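The compound was tested at five concentrations on cells cultured in 96-well plates, with a 48-hour exposure period. The concentration for 50% growth inhibition is given as GI50.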 Calls of active or inactive are those of the source. Rule as the data show it: active = GI50 up to about 1.1 µM and inactive = higher.

Columns and labels:
Test in all cases: NCI-60 cell line screen, 48 h
RXF 393 = system: RXF 393
SK-OV-3 = system: SK-OV-3
SF-268 = system: SF-268
EKVX = system: EKVX
A498 = system: A498
PC-3 = system: PC-3
A549 = system: A549
NCI-H522 = system: NCI-H522
MOLT-4 = system: MOLT-4
RPMI-8226 = system: RPMI-8226
ACHN = system: ACHN
COLO 205 = system: COLO 205
UACC-257 = system: UACC-257
NCI-H23 = system: NCI-H23
786-0 = system: 786-0
HOP-62 = system: HOP-62
SK-MEL-5 = system: SK-MEL-5
HT-29 = system: HT-29
MDA-MB-231 = system: MDA-MB-231
UACC-62 = system: UACC-62

SMILES | GI50 (RXF 393) | GI50 (SK-OV-3) | GI50 (SF-268) | GI50 (EKVX) | GI50 (A498) | GI50 (PC-3) | GI50 (A549) | GI50 (NCI-H522) | GI50 (MOLT-4) | GI50 (RPMI-8226) | GI50 (ACHN) | GI50 (COLO 205) | GI50 (UACC-257) | GI50 (NCI-H23) | GI50 (786-0) | GI50 (HOP-62) | GI50 (SK-MEL-5) | GI50 (HT-29) | GI50 (MDA-MB-231) | GI50 (UACC-62)
CCOC(=O)c1nc2ccccc2nc1NCc1cc(OC)c(OC)c(OC)c1 | 14.9 µM (inactive) | 80.5 µM (inactive) | > 100 µM (inactive) | 51.1 µM (inactive) | 23.9 µM (inactive) | 25.2 µM (inactive) | 37.8 µM (inactive) | 33 µM (inactive) | 27.2 µM (inactive) | 25.2 µM (inactive) | 43.6 µM (inactive) | 38.2 µM (inactive) | 75 µM (inactive) | > 100 µM (inactive) | 72.9 µM (inactive) | 55.1 µM (inactive) | 26.9 µM (inactive) | 40.5 µM (inactive) | 27.4 µM (inactive) | 36.8 µM (inactive)
Cc1ccc([S@+]([O-])c2occc2C=O)cc1 | 13.3 µM (inactive) | 13.6 µM (inactive) | 5.38 µM (inactive) | 19.8 µM (inactive) | 17.1 µM (inactive) | 5.02 µM (inactive) | 19.6 µM (inactive) | 15.4 µM (inactive) | 1.79 µM (inactive) | 1.91 µM (inactive) | 15.4 µM (inactive) | 14.9 µM (inactive) | 12.4 µM (inactive) | 14.5 µM (inactive) | 3.95 µM (inactive) | 17.5 µM (inactive) | 10.4 µM (inactive) | 7.38 µM (inactive) | 8.65 µM (inactive) | 15.5 µM (inactive)
COC(=O)[C@@H]1C[C@@]23CCCN4CC[C@@]5(c6cccc(OC)c6N(C=O)[C@]15CC2)[C@@H]43 | > 100 µM (inactive) | > 100 µM (inactive) | > 100 µM (inactive) | > 100 µM (inactive) | > 100 µM (inactive) | > 100 µM (inactive) | > 100 µM (inactive) | > 100 µM (inactive) | > 100 µM (inactive) | > 100 µM (inactive) | > 100 µM (inactive) | > 100 µM (inactive) | > 100 µM (inactive) | > 100 µM (inactive) | > 100 µM (inactive) | > 100 µM (inactive) | > 100 µM (inactive) | > 100 µM (inactive) | > 100 µM (inactive) | > 100 µM (inactive)
C=C1C(=O)OC2CC(C)C(C(CC(C)=O)OC(C)=O)=CCC12 (stereo not given) | 15.9 µM (inactive) | 37.9 µM (inactive) | 22.5 µM (inactive) | 11.8 µM (inactive) | 18.7 µM (inactive) | 19.3 µM (inactive) | 28.2 µM (inactive) | 1.73 µM (inactive) | 4.07 µM (inactive) | 3.87 µM (inactive) | 9.27 µM (inactive) | 6.82 µM (inactive) | 16.5 µM (inactive) | 17.2 µM (inactive) | 2.74 µM (inactive) | 21 µM (inactive) | 14.2 µM (inactive) | 8.41 µM (inactive) | 13.5 µM (inactive) | 11.7 µM (inactive)
CCOC(=O)c1cn2c(n1)sc1cc(F)ccc12 | 85.1 µM (inactive) | > 100 µM (inactive) | 82.2 µM (inactive) | > 100 µM (inactive) | 30.8 µM (inactive) | > 100 µM (inactive) | > 100 µM (inactive) | > 100 µM (inactive) | > 100 µM (inactive) | > 100 µM (inactive) | > 100 µM (inactive) | > 100 µM (inactive) | > 100 µM (inactive) | > 100 µM (inactive) | 52.8 µM (inactive) | 29.5 µM (inactive) | > 100 µM (inactive) | 82.8 µM (inactive) | 92.7 µM (inactive) | > 100 µM (inactive)
CS(=O)(=O)O.[Ag] | 18.8 µM (inactive) | 18.3 µM (inactive) | 16 µM (inactive) | 21.9 µM (inactive) | 20.8 µM (inactive) | 14.2 µM (inactive) | 10.3 µM (inactive) | 1.92 µM (inactive) | 2.32 µM (inactive) | 2.49 µM (inactive) | 4.53 µM (inactive) | 2.16 µM (inactive) | 10.2 µM (inactive) | 23.2 µM (inactive) | 16.3 µM (inactive) | 25.4 µM (inactive) | 5.3 µM (inactive) | 19.3 µM (inactive) | 21.3 µM (inactive) | 17.9 µM (inactive)
COc1ccc(NS(=O)(=O)c2ccc3ncn(NS(=O)(=O)c4ccc(I)cc4)c(=O)c3c2)cc1 | > 100 µM (inactive) | > 100 µM (inactive) | > 100 µM (inactive) | > 100 µM (inactive) | > 100 µM (inactive) | > 100 µM (inactive) | > 100 µM (inactive) | > 100 µM (inactive) | > 100 µM (inactive) | 6.03 µM (inactive) | > 100 µM (inactive) | > 100 µM (inactive) | > 100 µM (inactive) | > 100 µM (inactive) | > 100 µM (inactive) | > 100 µM (inactive) | > 100 µM (inactive) | > 100 µM (inactive) | > 100 µM (inactive) | 95.9 µM (inactive)
COc1ccc(/C(CCl)=C(\Nc2ccccc2)c2ccc(OC)c(OC)c2)cc1OC | 36.1 µM (inactive) | > 100 µM (inactive) | > 100 µM (inactive) | > 100 µM (inactive) | > 100 µM (inactive) | 65 µM (inactive) | 85.7 µM (inactive) | 94 µM (inactive) | 28.6 µM (inactive) | 68.2 µM (inactive) | 45.3 µM (inactive) | > 100 µM (inactive) | > 100 µM (inactive) | 49.3 µM (inactive) | > 100 µM (inactive) | > 100 µM (inactive) | 71.9 µM (inactive) | > 100 µM (inactive) | 93.1 µM (inactive) | > 100 µM (inactive)
C/C1=C\[C@H](C)C[C@H](C)OC(=O)[C@H](C)NC(=O)[C@@H](Cc2ccc(O)c(Br)c2)N(C)C(=O)[C@H](C)NC(=O)[C@@H](C)C1 | 0.0656 µM (active) | 0.0495 µM (active) | 0.0331 µM (active) | 0.0652 µM (active) | 0.0149 µM (active) | 0.0335 µM (active) | 0.0646 µM (active) | 0.0149 µM (active) | 0.3 µM (active) | 0.0295 µM (active) | 0.0326 µM (active) | 0.00728 µM (active) | 0.0927 µM (active) | 0.462 µM (active) | 0.00752 µM (active) | 0.0139 µM (active) | 0.0127 µM (active) | 0.00783 µM (active) | 0.0211 µM (active) | 0.146 µM (active)
C=C(CN(C)C)C(=O)c1ccc(OC)cc1 | 10 µM (inactive) | 24.7 µM (inactive) | 6.05 µM (inactive) | 18.7 µM (inactive) | 9.79 µM (inactive) | 15.2 µM (inactive) | 18.2 µM (inactive) | 0.267 µM (active) | 0.52 µM (active) | 2.11 µM (inactive) | 1.12 µM (active) | 0.326 µM (active) | 5.31 µM (inactive) | 7.4 µM (inactive) | 1.72 µM (inactive) | 21.7 µM (inactive) | 8.24 µM (inactive) | 5.71 µM (inactive) | 11.6 µM (inactive) | 9.33 µM (inactive)
CCC(CO)Nc1nc(NCc2ccccc2)c2ncn(C(C)C)c2n1 (stereo not drawn) [(RS)-ROSCOVITINE] | 7.66 µM (inactive) | 57.8 µM (inactive) | 13.7 µM (inactive) | 18.2 µM (inactive) | 23.9 µM (inactive) | 17.9 µM (inactive) | 23.3 µM (inactive) | 16.5 µM (inactive) | 28.5 µM (inactive) | 22.6 µM (inactive) | 18.8 µM (inactive) | 15 µM (inactive) | 30.3 µM (inactive) | 13.6 µM (inactive) | 20.2 µM (inactive) | 11.9 µM (inactive) | 15.8 µM (inactive) | 18.8 µM (inactive) | 25.8 µM (inactive) | 12.8 µM (inactive)
N[C@H](C(=O)O)[C@@H]1CC(Cl)=NO1 [ACIVICIN] | 7.62 µM (inactive) | 12.6 µM (inactive) | 1.53 µM (inactive) | 2.54 µM (inactive) | 6.84 µM (inactive) | 1.48 µM (inactive) | 0.916 µM (active) | 4.43 µM (inactive) | 2.14 µM (inactive) | 3.3 µM (inactive) | 1.47 µM (inactive) | 5.92 µM (inactive) | 4.8 µM (inactive) | 4.07 µM (inactive) | 13.8 µM (inactive) | 1.42 µM (inactive) | 1.99 µM (inactive) | 0.787 µM (active) | 72.6 µM (inactive) | 2.79 µM (inactive)
